Measured values: patent US10106519B2, “3-phenyl-7-hydroxy-isocoumarins as macrophage migration inhibitory factor (MIF) inhibitors” (The Provost, Fellows, Foundation Scholars, & the Other …, priority 2014, dated 2018)
Entries after “also recorded” stand apart in the source; their conditions may differ. One block for each compound: values may come before it.

Legend:
prostate cancer cells = conditions: cited from earlier work
[1] = system: LPS induced TNF-α production; conditions: RAW 264.7 cell line, previously shown; cited from earlier work
[2] = system: LPS induced TNF-α production; test: Inhibition of LPS induced TNF-α production in RAW 264.7 macrophage cells (ELISA); format: cell-based, mouse
Procedure: RAW 264.7 macrophage cells were plated at 1×10^5/ml in 450 μl of medium in a 48 well plate. 16 hours later cells were treated with ISO-1 or Tautomerase Inhibitors at a final concentration of 10, 50 or 100 μM for 30 minutes before stimulation with 100 ng/ml LPS. Supernatants were collected after 20 hours for determination of TNF-α levels. TNF-α levels were determined using a TNF-α specific ELISA (CAT # DY410 R&D Syst).
96 well plates were coated with 50 μl of Capture Antibody ([…]) in PBS and sealed and incubated overnight at 4° C. Plates were then washed three times in 0.05% PBS Tween and plates blotted. Plates were blocked by adding 150 μl of 1% BSA in PBS (Gibco—cat no. 14190-094) to each well and incubated at room temperature for 2 hours. Plates were washed again as previously described. 50 μl of sample or standard was added to each well and incubated for overnight at 4° C. Plates were then washed again as described. 50 μl of the detection Antibody (200 ng/ml) in 1% BSA in PBS was added to each well and incubated for 2 hours at room temperature. Plates were then washed again as described. 50 μl of working concentration of Streptavidin—HRP was added to each well and plates were covered and incubated for 20 minutes at room temperature. 50 μl of substrate solution (One OPD tablet and one urea hydrogen peroxide/buffer tablet were dissolved in 20 ml of water to yield a ready to use buffered solution, Sigma—cat no. 9187-50) was added to each well and incubated for 20 minutes at room temperature. 25 μl of 2N H2SO4 was added to each well to stop the reaction. The optical density of each well was then measured with a spectrophotometer at 450 nm.
Initially the panel of 25 novel potential tautomerase inhibitors was screened in an in-vitro system. In order to do this we exploited the fact that MIF is needed for optimal LPS induced TNF-α production. We therefore reasoned that our potential TIs should be able to inhibit LPS induced TNF-α in RAW macrophage murine cells. RAW macrophage murine cells were plated at 37° C. in a humidified 5% CO2 incubator. 16 hours later the cells were pre-treated with each of the inhibitors at concentration of 100, 50 or 10 μM for 30 minutes 100 ng/ml of LPS was then added to the cells and supernatants were collected after 16 hours and analysed for TNF-α production by ELISA.

[3] = system: LPS mediated PGE-2 production; test: PGE-2 production in LPS treated RAW macrophage cells (ELISA); format: cell-based, murine; conditions: 100 μM inhibitor, 100 ng/ml LPS (FIG. 4)
Procedure: Raw macrophage murine cells were plated at a cell density of 1×10^5 and pre-treated with 100 μM of each of the inhibitors […] for 30 minutes at 37° C. in a humidified 5% CO2 incubator. Raw macrophage cells were then treated with 100 ng/ml of LPS and supernatants were collected after 16 hours at 37° C. in a humidified 5% CO2 incubator and analysed for PGE-2 production. Levels of PGE-2 were measured by ELISA. (CAT # KGE004 R&D Syst).

PGE-2 = conditions: increasing concentrations; cited from earlier work
[4] = system: Lewis Lung carcinoma cells (LLC); test: LLC-GLuc proliferation assay with rMIF; format: cell-based, mouse; conditions: 100 μM inhibitor, 100 ng/ml rMIF, 48 hours (FIG. 5)
Procedure: LLC-GLuc cells were plated in a 6 well plate at a density of 5×10^4 cells/ml in DMEM supplemented with P/S, 10% FCS and L-Glu. After overnight adherence, 100 ng/ml MIF was added along with the inhibitors or DMSO to a total of 1 ml serum free medium. Cells were harvested after 48 hours by trypsinisation and counted in a haemocytometer.
The ability of candidate compounds to reduce cellular proliferation was also examined. For this assay, LLC cells were plated at a cell density of 5×10^4 cells/ml. The cells were then pre-treated with TI 19 or ISO-1 at a concentration of 100 μM. The cells were then treated with 100 ng/ml of recombinant MIF. The cells were incubated at 37° C. in a humidified 5% CO2 incubator and after 48 hours the cells were harvested and counted.

[5] = system: Lewis Lung carcinoma cells; test: Subcutaneous LLC1 tumour model with in vivo tautomerase inhibitor treatment; set-up: species or system C57BL/6 mice; conditions: 35 mg/kg intraperitoneally 30 min prior to inoculation and twice weekly, day 28 (FIG. 8)
Procedure: Log phase cultures of LLC-1 cells were harvested by trypsinisation and washed three times with sterile phosphate buffered saline (PBS) and resuspended at a cell density of 5×10^5/ml in PBS. Animals were shaved with an electric shaver 24 hours before subcutaneous injection. 5×10^5 Lewis Lung cells were injected subcutaneously into the left flank of C57BL/6 mice of 6-8 weeks. Animals were monitored for the duration of the experiment and tumour measurements were recorded twice weekly with a digital callipers. Tumour volume (mm^3) was calculated as 0.5×L×W^2, where length is representative of the larger tumour diameter and the width represents the smaller tumour diameter. Animals are sacrificed when tumours reach a diameter of 15 mm or if tumours become ulcerated. Tumours are then removed along with the lungs, spleen and liver.
30 minutes prior to LLC-1 inoculation, inhibitors (TI 19/ISO-1) were administered at a concentration of 35 mg/kg in a volume of 100 μl 5% DMSO in sterile PBS. Control groups were given injections of vehicle 5% DMSO in sterile PBS or sterile PBS alone. Animals were treated twice weekly for four weeks.
In order to assess the antitumour activity of the novel tautomerase inhibitors in vivo, a subcutaneous LLC-1 cell model was set up. The subcutaneous model was chosen so that tumours could be easily visualised and measured during the course of the experiment and to allow assessment of the growth of the tumour in real time. Lewis Lung carcinoma cells (5×10^5) were injected sub-cutaneously into the left flank of C57BL/6 mice. Caliper measurements were taken twice weekly and tumour volume (mm^3) was calculated as 0.5×L×W^2. […] The cut off point for this model was when the tumour measured 15 mm in diameter. This model gave us an indication of normal tumour growth in this subcutaneous model. It can be seen from this model that from day 22 to day 28 the size of the tumour grows considerably.
Once it was determined that the enzymatic activity played a role in the growth of tumours, the subcutaneous LLC model was then used to assess the efficiency of the small weight molecular inhibitors. C57/B16 mice were injected intraperitoneally with 35 mg/kg of each of the inhibitors 30 minutes prior to subcutaneous tumour inoculation and again twice weekly for 4 weeks. Animals were monitored daily and tumour measurements taken until the tumour measured 15 mm in diameter.

[6] = system: circulating levels of TNF-α; conditions: LPS induced model of murine sepsis; cited from earlier work
MIF tautomerase = target: T1, MIF tautomerase (Homo sapiens, UniProt P14174); test: MIF tautomerase inhibition assay; format: biochemical; conditions: structure activity relationship studies (FIG. 10)
T1 construct: host or cells: E. coli BL21
T1 sequence (P14174 2-115 limits assumed): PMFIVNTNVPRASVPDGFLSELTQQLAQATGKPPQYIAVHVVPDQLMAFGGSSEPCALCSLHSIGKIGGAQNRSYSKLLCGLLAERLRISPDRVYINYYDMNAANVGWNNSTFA
Procedure: Human recombinant MIF was purified as per Bernhagen et al. (Biochemistry, 1994. 33(47): p. 14144-55). Briefly, BL21 E. coli cells expressing the pET11b-MIF construct were grown to an absorbance at 600 nm (OD) of […]. Isopropyl 1-thio-P-D-galactopyranoside (IPTG) (Sigma—cat no. 16758) was added to a final concentration of 1 mM to induce expression of the MIF gene and incubated for another 3 hours. Bacteria were then harvested by centrifugation and the cell pellets were then frozen. Protein purification was then out sourced to Scottish Biomedical, where the bacterial pellets were thawed and resuspended in 3 ml of Tris-buffered saline. The bacteria were then lysed by adding an equivalent number of glass beads and vortexing strongly for 10 minutes. Glass beads were removed by centrifugation at 1000 g for 10 minutes and the bacterial extract was centrifuged at 1000 g for a further 30 minutes. The supernatant was then sterile-filtered through a […] membrane filter and put through a MONO Q anion exchange chromatography column. MIF was eluted using Tris-buffered saline in the first flow-through fractions and pooled and placed on ice. These pooled fractions were then applied to a C8-SepPak reverse phase column. Unbound material was eluted by washing with water and 20% acetonitrile/water. MIF was then eluted using 6 column volumes of 60% acetonitrile/water. This sample was then renatured by dissolving MIF at a concentration of […] in 20 mM sodium phosphate buffer containing 8M urea and 5 mM DTT and dialysed against 20 mM sodium phosphate buffer. […]
L-dopachrome methyl ester was prepared at 2.4 mM through oxidation of L-3,4-dihydroxyphenylalanine methyl ester with sodium periodate. The solution was mixed well and placed at room temperature for 5 minutes before being placed on ice in the dark. 100 ng of rMIF was added to each of the Tautomerase Inhibitors or ISO-1 at a number of concentrations (1, 50 and 100 μM) with substrate. The decrease in absorbance was measured with a spectrophotometer at 475 nm every 10 seconds for 10 minutes.
The rate of the reaction of rMIF and substrate alone was measured over time at 475 nm. This was compared to the rate of this reaction with the addition of 100 μM of each of the inhibitors. Inhibition was calculated as the percentage in the reduction of the rate of change with the addition of the inhibitor averaged over five minutes.

[7] = comparative analysis, same assay

Structure (SMILES): COC(=O)CC1CC(c2ccc(O)cc2)=NO1 (stereo not shown) [ISO-1, reference compound]
cell proliferation, in words (prostate cancer cells): decreased cell proliferation in prostate cancer cells
TNF-α production induced by LPS, in words [1]: inhibit TNF-α production induced by addition of LPS
reduction of TNF-α production ([2]; 100 μM inhibitor 30 minutes before 100 ng/ml LPS (FIG. 2A)): 20%
reduction of LPS mediated PGE-2 production, in words [3]: significantly reduces
production of PGE-2, in words (PGE-2): reduce the production of PGE-2 in a dose dependant manner
reduction of MIF induced proliferation, in words [4]: less so; also recorded: reduced the MIF induced proliferation
reduction in tumour growth / tumour size [5]: over 50%
circulating levels of TNF-α, in words [6]: reduce circulating levels of TNF-α

Structure (SMILES): COc1ccc2cc(-c3ccccc3C)oc(=O)c2c1 [SDG-23]
tautomerase inhibitory activity of analogues, in words (MIF tautomerase): did not significantly inhibit MIF tautomerase

Structure (SMILES): Cc1cccc(-c2cc3ccc(O)cc3c(=O)o2)c1 [SDG-47, 3-(3′-methylphenyl)-7-hydroxyisocoumarin]
tautomerase inhibitory activity of analogues, in words (MIF tautomerase): almost complete inhibition of MIF tautomerase activity

Structure (SMILES): O=c1oc(-c2ccccc2O)cc2ccccc12 [SDG-50]
tautomerase inhibitory activity of analogues, in words (MIF tautomerase): dramatic loss in tautomerase inhibition activity

Structure (SMILES): COc1cc2c(=O)oc(-c3ccccc3C)cc2cc1C [SDG-51, 3-(2′-methylphenyl)-6-methyl-7-methoxyisocoumarin]
tautomerase inhibitory activity of analogues, in words (MIF tautomerase): did not significantly inhibit MIF tautomerase

Structure (SMILES): COc1cc2cc(-c3ccccc3C)oc(=O)c2cc1OC [SDG-53, 3-(2′-methylphenyl)-6,7-dimethoxyisocoumarin]
tautomerase inhibitory activity of analogues, in words (MIF tautomerase): did not significantly inhibit MIF tautomerase

Structure (SMILES): Cc1ccccc1-c1cc2cc(O)c(O)cc2c(=O)o1 [SDG-54, 3-(2′-methylphenyl)-6,7-hydroxyisocoumarin]
inhibition of MIF tautomerase activity, analogues of TI 19 (MIF tautomerase): 86%
tautomerase inhibitory activity of analogues, in words (MIF tautomerase): almost complete inhibition of MIF tautomerase activity

Second part, led by results:

inhibition of MIF tautomerase activity, analogues of TI 19 (MIF tautomerase): > 90%
Structure (SMILES): Cc1ccccc1-c1cc2ccc(O)cc2c(=O)o1 [SDG-22, 3-(2′-methylphenyl)-7-hydroxyisocoumarin]
tautomerase inhibitory activity of analogues, in words (MIF tautomerase): very effective inhibitor of MIF tautomerase; also recorded: most effective tautomerase inhibitor identified to date; also recorded: significantly more potent than TI 19
reduction of TNF-α production, comparative analysis ([2]; LPS stimulated RAW macrophage murine cells, 100 μM (FIG. 11)): 97%
more effective than ISO-1 in reducing TNF-α production [2, 7]: 80%
more effective than TI 19 in reducing TNF-α production [2, 7]: 10%
reduction of TNF-α production, in words ([2]; concentration not given): significant reduction in TNF-α production

tautomerase inhibitory activity of analogues, in words (MIF tautomerase): dramatic loss of inhibitory activity
Structure (SMILES): Cc1cc2ccccc2c(=O)o1 [SDG-40]

tautomerase inhibitory activity of analogues, in words (MIF tautomerase): ineffective as a tautomerase inhibitor
Structure (SMILES): Cc1ccccc1-c1cc2ccccc2c(=O)[nH]1 [SDG-42]

tautomerase inhibitory activity of analogues, in words (MIF tautomerase): inactivity
Structure (SMILES): O=c1oc(-c2ccccc2)cc2ccccc12 [SDG-46]

tautomerase inhibitory activity of analogues, in words (MIF tautomerase): some inhibitory activity
Structure (SMILES): Cc1cc2cc(-c3ccccc3C)oc(=O)c2cc1O [SDG-52, 3-(2′-methylphenyl)-6-methyl-7-hydroxyisocoumarin]
